Experimental findings from patent publication US6380158B1, “Motilin homologs” (ZymoGenetics, Inc., priority 1997, dated 2002) are described below.

One test concerns ob/ob mice. Put plainly: Oral glucose challenge in ob/ob mice after oral gavage of the peptide (serum glucose levels). Type of test: in vivo. The following applies: 100 μg orally, 30 minutes prior to oral glucose challenge. As to the method:
Eight female ob/ob mice, approximately 6 weeks […] old (Jackson Labs, Bar Harbor, Me.) were adapted to a 4 hour daily feeding schedule for two weeks. After two weeks on the feeding schedule, the mice were give 100 μg of a 14 amino acid amino zsig33 peptide (from amino acid residue 24 (Gly) to amino acid residue 37 (Gln) of SEQ ID NO: 2) in 100 μl sterile 0.1% BSA by oral gavage, immediately after their eating period (post-prandially). Thirty minutes later, the mice were challenged orally with a 0.5 ml volume of 25% glucose. Retroorbital bleeds were done to determine serum glucose levels. Blood was drawn prior to zsig33 dosing, prior to oral glucose challenge, and at 1, 2, 4, and 20 hours following the glucose challenge.

For test [1], the system named is antral portion of the stomach. In words: Rat stomach contraction in vivo: topical application between two transducing crystals on the antrum. The arrangement: species or system Sprague-Dawley rats. The text has this: Two male Sprague-Dawley rats, approximately 12 weeks old (Harlan, Indianapolis, Ind.) were anesthetized with urethane and their stomachs were exposed through a small abdominal incision. Two 2.4 mm transducing crystals (Sonometrics, Ontario, Canada) were placed on the antral portion of the stomach such that circular contractions could be monitored as a change in the distance between the two crystals. The crystals were attached with VETBOND TISSUE ADHESIVE (3M, St. Paul, Minn.).
The amplitude of the NE-induced decrease was approximately 50% of the acetylcholine-induced increase in distance. Both responses were transient.
A negative control of 10 μl of phosphate buffer solution (PBS) applied topically between the crystals had no effect.
A 14 amino acid zsig33 peptide (from amino acid residue 24 (Gly) to amino acid residue 37 (Gln) of SEQ ID NO: 2) was dissolved in PBS) and 10 μl was applied topically for a final concentration of 1 μg, 10 μg or 100 μg.

Where [2] appears, read: 10 μl of 1 μM applied topically, anesthetized rats.

For “zsig33 peptide: 14 amino acid zsig33 peptide, from amino acid residue 24 (Gly) to amino acid residue 37 (Gln) of SEQ ID NO: 2 (GSSFLSPEHQRVQQ)”, the “post-prandial glucose absorption (serum glucose levels)” value in the test on ob/ob mice is “enhanced post-prandial glucose absorption”. Further, in test [1] (1 μg in 10 μl PBS applied topically), the “change in crystal distance (stomach contractions)” value is “sustained, rhythmic increase and decrease in crystal distance”. Besides, the “change in crystal distance (rate and amplitude of contractions)” value in test [1] (10 μg in 10 μl PBS applied topically) was “enhanced responses in both rate and amplitude”; in test [1] (100 μg in 10 μl PBS applied topically), “enhanced responses in both rate and amplitude”.
With `NC[C@H](O)c1ccc(O)c(O)c1` [norepinephrine, reference compound], in test [1] (setting [2]), the “amplitude of the NE-induced decrease relative to the acetylcholine-induced increase in distance” value is “approximately 50%” and the “change in the distance between the two crystals (circular contractions of the stomach)” value is reported as “reduction in the distance between the two crystals”.
